Data from patent US12590087B2, “Inhibiting USP36” (Valo Health, Inc., priority 2019, dated 2026).

Biological target: T1, human USP36 (81-461) (Homo sapiens, UniProt Q9P275)
T1 sequence (Q9P275 81-461): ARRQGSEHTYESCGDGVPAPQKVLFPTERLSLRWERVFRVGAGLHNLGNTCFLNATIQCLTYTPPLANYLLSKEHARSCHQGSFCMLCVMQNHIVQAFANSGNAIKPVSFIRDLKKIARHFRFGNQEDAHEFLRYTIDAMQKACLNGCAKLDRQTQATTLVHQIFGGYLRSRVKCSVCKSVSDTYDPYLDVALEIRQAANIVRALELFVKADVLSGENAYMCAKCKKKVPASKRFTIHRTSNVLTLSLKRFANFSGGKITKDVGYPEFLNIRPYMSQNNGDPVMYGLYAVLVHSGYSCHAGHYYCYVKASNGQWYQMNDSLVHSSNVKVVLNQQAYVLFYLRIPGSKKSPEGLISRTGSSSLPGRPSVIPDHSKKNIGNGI
Assay: USP36 inhibition biochemical assay
Conditions: read-out: USP 36 IC50; 2 nM human USP36 (81-461), 25 nM Ub-Rh110MP substrate, 30 minutes preincubation with compound, fluorescence rate over 10 minutes
Description: Test compounds were serially diluted in DMSO (Sigma, G7516) to obtain 10-point, 3-fold series. […] Enzyme and substrate concentrations and incubation times were optimized for the maximal signal-to-background while maintaining linear initial velocity conditions at a fixed substrate concentration below Km.
Rates were calculated by: rate=((final FLU−initial FLU)/600 seconds) where final FLU=fluorescence at time 10 minutes, initial FLU=fluorescence at time 0 minutes and 600=duration of reaction in seconds.
Data were reported as percent inhibition compared with control wells based on the following equation: % inh=100*((rate−AveLow)/(AveHigh−AveLow)) where rate=measured rate of fluorescence generated during assay, AveLow=average rate of no enzyme control (n=32), and AveHigh=average rate of DMSO control (n=32).
Data were fitted using the Levenburg Marquardt algorithm.

IC50: 198 nM
Compound: O=C(Nc1snnc1C(=O)Nc1ccc(N2CCCC2)cc1)c1cncc(C(F)(F)F)c1 [Compound 1, N-(4-(pyrrolidin-1-yl)phenyl)-5-(5-(trifluoromethyl)nicotinamido)-1,2,3-thiadiazole-4-carboxamide]
